Assay results published in PubChem BioAssay (NCI).
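How tested: cells in 96-well plates exposed to compound for 48 hours at five concentrations. At the TGI there is no net growth.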

Experiments:
Test in all cases: DTP human tumour cell line panel, 48 h
[1] = test system: OVCAR-3 ovarian
[2] = test system: HCT-15 colon
[3] = test system: HS 578T breast
[4] = test system: SK-MEL-28 melanoma
[5] = test system: DU-145 prostate
[6] = test system: OVCAR-8 ovarian
[7] = test system: HCC-2998 colon
[8] = test system: HOP-62 NSCLC
[9] = test system: HT29 colon
[10] = test system: SK-MEL-2 melanoma
[11] = test system: OVCAR-5 ovarian
[12] = test system: U251 CNS
[13] = test system: UACC-257 melanoma
[14] = test system: RPMI-8226 leukemia
[15] = test system: SW-620 colon
[16] = test system: COLO 205 colon
[17] = test system: T-47D breast
[18] = test system: CCRF-CEM leukemia
[19] = test system: IGROV1 ovarian
[20] = test system: MDA-N
[21] = test system: PC-3 prostate
[22] = test system: SK-MEL-5 melanoma
[23] = test system: EKVX NSCLC
[24] = test system: HOP-92 NSCLC
[25] = test system: SR leukemia
[26] = test system: CAKI-1 renal
[27] = test system: LOX IMVI melanoma
[28] = test system: UACC-62 melanoma
[29] = test system: M14 melanoma
[30] = test system: ACHN renal
[31] = test system: TK-10 renal
[32] = test system: RXF 393 renal
[33] = test system: NCI/ADR-RES ovarian
[34] = test system: KM12 colon
[35] = test system: SF-268 CNS
[36] = test system: MDA-MB-231 breast
[37] = test system: HL-60(TB) leukemia
[38] = test system: SN12C renal
[39] = test system: BT-549 breast
[40] = test system: HCT-116 colon
[41] = test system: NCI-H226 lung
[42] = test system: MOLT-4 leukemia
[43] = test system: K-562 leukemia
[44] = test system: NCI-H23 lung
[45] = test system: A549 NSCLC
[46] = test system: SNB-19 CNS
[47] = test system: OVCAR-4 ovarian
[48] = test system: SK-OV-3 ovarian
[49] = test system: A498 renal
[50] = test system: MDA-MB-435
[51] = test system: MALME-3M melanoma
[52] = test system: 786-0 renal
[53] = test system: UO-31 renal
[54] = test system: SF-539 CNS
[55] = test system: SNB-75 CNS
[56] = test system: MCF7 breast
[57] = test system: NCI-H460 lung
[58] = test system: NCI-H522 lung
[59] = test system: SF-295 CNS

## COc1ccc(/C=C/C(=O)c2cc(C(C)(C)C)c(O)c(C(C)(C)C)c2)cc1OC
[1]
  TGI: > 100 µM
[2]
  TGI: > 100 µM
[3]
  TGI: > 77.2 µM
[4]
  TGI: > 100 µM
[5]
  TGI: > 70.3 µM
[6]
  TGI: > 100 µM
[7]
  TGI: 7.74 µM
[8]
  TGI: > 100 µM
[9]
  TGI: 60 µM
[10]
  TGI: 16.5 µM
[11]
  TGI: > 85.8 µM
[12]
  TGI: 29.8 µM
[13]
  TGI: 23.3 µM
[14]
  TGI: 12.8 µM
[15]
  TGI: > 100 µM
[16]
  TGI: 31.9 µM
[17]
  TGI: 24.4 µM
[18]
  TGI: 11.8 µM
[19]
  TGI: > 100 µM
[20]
  TGI: > 33.3 µM
[21]
  TGI: > 46.4 µM
[22]
  TGI: 20.7 µM
[23]
  TGI: > 100 µM
[24]
  TGI: > 100 µM
[25]
  TGI: 5.83 µM
[26]
  TGI: > 90 µM
[27]
  TGI: 29.3 µM
[28]
  TGI: 40.1 µM
[29]
  TGI: > 100 µM
[30]
  TGI: 99.3 µM
[31]
  TGI: 47.4 µM
[32]
  TGI: 7.69 µM
[33]
  TGI: 49.7 µM
[34]
  TGI: > 59.4 µM
[35]
  TGI: > 67.7 µM
[36]
  TGI: 51.6 µM
[37]
  TGI: 17.6 µM
[38]
  TGI: 65.5 µM
[39]
  TGI: > 77.6 µM
[40]
  TGI: 48.6 µM
[41]
  TGI: 43 µM
[42]
  TGI: > 49.6 µM
[43]
  TGI: > 89.6 µM
[44]
  TGI: > 68.9 µM
[45]
  TGI: > 100 µM
[46]
  TGI: 64.1 µM
[47]
  TGI: > 92.9 µM
[48]
  TGI: > 100 µM
[49]
  TGI: > 79.7 µM
[50]
  TGI: 21.2 µM
[51]
  TGI: > 100 µM
[52]
  TGI: 27.4 µM
[53]
  TGI: 57.9 µM
[54]
  TGI: 52.1 µM
[55]
  TGI: 13.5 µM
[56]
  TGI: 32.4 µM
[57]
  TGI: 20.2 µM
[58]
  TGI: 72.1 µM
[59]
  TGI: > 71.1 µM

## O=c1c2c3c(sc2nc2n1N=C(c1ccc(Cl)cc1)CS2)CCCC3
[1]
  TGI: > 100 µM
[2]
  TGI: > 100 µM
[3]
  TGI: > 100 µM
[4]
  TGI: > 100 µM
[5]
  TGI: > 100 µM
[6]
  TGI: > 100 µM
[7]
  TGI: > 100 µM
[8]
  TGI: > 100 µM
[9]
  TGI: > 100 µM
[11]
  TGI: > 100 µM
[12]
  TGI: > 100 µM
[13]
  TGI: > 100 µM
[14]
  TGI: > 100 µM
[15]
  TGI: > 100 µM
[16]
  TGI: > 100 µM
[17]
  TGI: > 100 µM
[18]
  TGI: > 100 µM
[19]
  TGI: > 100 µM
[20]
  TGI: > 100 µM
[21]
  TGI: > 100 µM
[22]
  TGI: > 100 µM
[23]
  TGI: > 100 µM
[24]
  TGI: > 100 µM
[25]
  TGI: > 100 µM
[26]
  TGI: > 100 µM
[27]
  TGI: > 100 µM
[28]
  TGI: > 100 µM
[30]
  TGI: > 100 µM
[31]
  TGI: > 100 µM
[32]
  TGI: > 100 µM
[33]
  TGI: > 100 µM
[34]
  TGI: > 100 µM
[35]
  TGI: > 100 µM
[36]
  TGI: > 100 µM
[37]
  TGI: > 100 µM
[38]
  TGI: > 100 µM
[39]
  TGI: > 100 µM
[40]
  TGI: > 100 µM
[41]
  TGI: > 100 µM
[42]
  TGI: > 100 µM
[43]
  TGI: > 100 µM
[44]
  TGI: > 100 µM
[45]
  TGI: > 100 µM
[47]
  TGI: > 100 µM
[48]
  TGI: > 100 µM
[49]
  TGI: > 100 µM
[50]
  TGI: > 100 µM
[51]
  TGI: > 100 µM
[52]
  TGI: > 100 µM
[53]
  TGI: > 100 µM
[54]
  TGI: > 100 µM
[55]
  TGI: > 100 µM
[56]
  TGI: > 100 µM
[57]
  TGI: > 100 µM
[58]
  TGI: > 100 µM
[59]
  TGI: > 100 µM
